From patent US20250243486A1, “COMPOSITIONS AND METHODS FOR INHIBITING STAG1 EXPRESSION AND USES THEREOF” (PRESIDENT AND FELLOWS OF HARVARD COLLEGE, priority 2022, published 2025) come the findings set out here.

The test system of this assay is STAG1 Exon 5. As to the kind of experiment: STAG1 Exon 5 inclusion in control or STAG2 KO cells following treatment with H3B-8800. The class given is cell-based.

As for H3B-8800, the “STAG1 Exon 5 skipping” value (STAG2 KO versus control cells, following treatment of H3B-8800) was “increased STAG1 Exon 5 skipping”. The “sensitivity of cohesin-mutant AML cells to splicing inhibitor” value (cohesin mutations, AML cells) is recorded as “highly sensitive”.
